≈ marks a conversion by molar mass, not a printed value.
What was measured:
[1] = system: BD1 and BD2 of BET proteins (BRD2, BRD3, BRD4 and BRDT); test: Protein stability shift assay (ΔTm), BET bromodomains; type: binding; conditions: compound 10 μM; protein 2 μM
Protocol: (§1) The compounds were tested at 10 μM fixed dose and the pan‐BET inhibitor 1 was used as a reference compound.[22] The results obtained from this screening supported our design strategy.
(§2) Protein stability shift assay. Thermal melting experiments were carried out using an Mx3005p Real Time PCR machine (Stratagene). Proteins were buffered in 10 mM HEPES pH 7.5, 500 mM NaCl and assayed in a 96‐well plate at a final concentration of 2 μM in 20 μL volume. Compounds were added at a final concentration of 10 μM. SYPRO Orange (Molecular Probes) was added as a fluorescence probe at a dilution of 1 : 1000. Excitation and emission filters for the SYPRO‐Orange dye were set to 465 nm and 590 nm, respectively. The temperature was raised with a step of 3 °C per minute from 25 °C to 96 °C and fluorescence readings were taken at each interval. The temperature dependence of the fluorescence during the protein denaturation process was approximated by the equation yT=yF+yU-yF/1+e^ΔuGT/RT
(§3) where ΔuG(T) is the difference in unfolding free energy between the folded and unfolded state, R is the gas constant and yF and yU are the fluorescence intensity of the probe in the presence of completely folded and unfolded protein, respectively. The baselines of the denatured and native states were approximated by a linear fit. The observed temperature shifts, ΔTm obs, were recorded as the difference between the transition midpoints of sample and reference wells containing protein without ligand in the same plate and determined by non‐linear least squares fit.

[2] = system: non‐BET bromodomain‐containing proteins (CREBBP, PB1 and PCAF); test: Protein stability shift assay (ΔTm), non-BET bromodomains; type: binding; conditions: compound 10 μM; protein 2 μM
Protocol: as §1, §2, §3

[3] = system: BD1 of BRD4; parameters: method as in earlier work; conditions: ref 19b; cited from earlier work
[4] = CYPs and UGTs dual-activity microsomal stability; type: in vitro ADME; conditions: human liver microsomes; alamethicin, NADPH and UDPGA cofactors; 37 °C, 60 min
Protocol: In this study, the CYPs and UGTs “dual‐activity” microsomal stability assay was carried out to follow the loss of the test compounds over time under CYP‐ and UGT‐mediated metabolic pathways. In detail, the compounds were added to human liver microsomes in the presence of alamethicin, NADPH and UDPGA as cofactors.[24] Alamethicin, a pore‐forming peptide, was used to activate UGTs in human liver microsomes. Testosterone was used as positive control while the negative control was prepared by incubation of the compounds without cofactors up to 60 min. The negative control is essential to detect problems such as non‐specific protein binding or heat instability.
Instrumentation and chromatographic conditions. The metabolic stability of investigated compounds was monitored using a Nexera UHPLC system (Shimadzu, Kyoto, Japan) consisting of a CBM‐20A controller, two LC‐30AD pumps, an SPD‐M20A photo diode array detector, a CTO‐20AC column oven and, a SIL‐30AC autosampler. The chromatographic analyses were accomplished on a Kinetex® Evo C18 column, 150×2.1 mm×2.6 μm (Phenomenex®, Bologna, Italy) maintained at 40 °C. The optimal mobile phase consisted of 0.1 % HCOOH/H2O v/v (A) and 0.1 % HCOOH/ACN v/v (B) delivered at constant flow rate of 0.5 mL/min ^−1. Analysis was performed in gradient elution as follows: 0–8.00 min, 5–95 % B; 8.00–10.00 min, isocratic to 95 % B; then five minutes for column re‐equilibration. Data acquisition was set in the range 190–800 nm and chromatograms were monitored at 254 nm.
In vitro drug metabolism using human liver microsomes. 25 μL of 5 mg/mL human […] microsomes (Thermo Fisher Scientific, Bremen, Germany) were pre‐incubated with 0.625 μL of 100 μg/mL alamethicin. Then 2.5 μL of sample (5 mM) with 168 μL of 100 mM phosphate buffer (pH 7.4), 4 μL of 500 mM MgCl2 were added, the mixture was incubated at 37 °C for 5 min. Optimal UGT activity can be achieved by the addition of MgCl2 and alamethicin as pore forming antibiotic. These components allow for the efficient transfer of a glucuronide product and the cofactor uridine 5′‐diphospho‐α‐D‐glucuronic acid (UDPGA) within the microsomal matrix. The reaction has started by adding 50 μL of mix NADPH 20 mM and UDP‐GlcUA 20 mM as cofactors (1 : 1 v/v) and carried out 37 °C for 60 min in a Thermomixer comfort (Eppendorf, Hamburg, Germany). The reaction was stopped by the addition of 200 μL ice‐cold acetonitrile and then samples were centrifuged at 14,000 rpm at 25 °C for 5 min (Eppendorf® microcentrifuge 5424, Hamburg, Germany). The supernatants were collected and injected in UHPLC. The control at 0 min was obtained by addition of ice‐cold acetonitrile immediately after incubation with microsomes. […]

[5] = Nephelometric solubility determination; type: physicochemical; conditions: for solubility: aqueous buffer, kinetic from dmso stock, PBS with 1 % DMSO, tested at 50 and 100 μM, room temperature, read-out: Solubility (highest concentration where no precipitate was detected)
Protocol: Solubility determination. Solubility of the compounds was determined using Nepheloskan Ascent® (Labsystems). The experiments were performed at room temperature in 96‐well plates in a final volume of 300 μL. Each compound was tested in quadruplicate at the concentrations of 50 and 100 μM in PBS with 1 % DMSO. The measurements were performed at 4 different time points (T0, 30 min, 60 min, 90 min) from the preparation of the samples. Data obtained were compared to control (PBS with 1 % DMSO) and the ratio sample/control was determined for each compound. Compounds are considered soluble if the ratio is≤3.

[6] = in vitro; conditions: PAMPA, pH 7.4
Protocol: Membrane permeability was estimated by the well‐validated parallel artificial membrane permeability assay (PAMPA) technique.[17, 26]
Parallel Artificial Membrane Permeability Assay (PAMPA). Donor solution (0.2 mM) was prepared by diluting 20 mM dimethyl sulfoxide (DMSO) compound stock solution using phosphate buffer (pH 7.4, 0.01 M). Filters were coated with 5 μL of a 1 % (w/v) dodecane solution of L‐α‐phosphatidylcholine. Donor solution (150 μL) was added to each well of the filter plate. To each well of the acceptor plate, 300 μL of solution (5 % DMSO in phosphate buffer) was added. […] The sandwich was incubated for 24 h at room temperature under gentle shaking. After the incubation time, the sandwich plates were separated and 250 μL of the acceptor plate was transferred to a UV quartz microtiter plate and measured by UV spectroscopy, using a Multiskan GO microplate spectrophotometer (Thermo Fisher Scientific) at 250–500 nm at a step of 5 nm. Reference solutions (250 μL) were prepared diluting the sample stock solutions to the same concentration as that with no membrane barrier.
In this equation, VR is the volume of the acceptor compartment (0.3 cm^3), VD is the donor volume (0.15 cm^3), A is the accessible filter area (0.24 cm^2), and t is the incubation time in seconds.

[7] = system: BD1 (BRD3 and BRD4); conditions: cited from earlier work

| Structure (SMILES) | ΔTm screening against BET bromodomains [1] | also measured |
| --- | --- | --- |
| Cc1cc(-c2nc3ccc(S(=O)(=O)NCc4ccccn4)cc3[nH]2)cc(C)c1O [9 e, 2‐(4‐hydroxy‐3,5‐dimethylphenyl)‐N‐(pyridin‐2‐ylmethyl)‐1H‐benzo[d]imidazole‐6‐sulfonamide] | complete loss of activity |  |
| Cc1cc(-c2nc3ccc(S(=O)(=O)NC4CCCC4)cc3[nH]2)cc(C)c1O [9 h, N ‐cyclopentyl‐2‐(4‐hydroxy‐3,5‐dimethylphenyl)‐1H‐benzo[d]imidazole‐6‐sulfonamide] | affinity toward BETs similar to 9 a and 9 b | ΔTm screening, off-target binding (BD2 of BRDT and non-BET bromodomains) [2]: strong binding to BD2 of BRDT and other non‐BET bromodomain‐containing proteins |
| Cc1cc(-c2nc3ccc(S(=O)(=O)NC4CC4)cc3[nH]2)cc(C)c1O [9 g, N ‐cyclopropyl‐2‐(4‐hydroxy‐3,5‐dimethylphenyl)‐1H‐benzo[d]imidazole‐6‐sulfonamide] | partial loss of affinity toward BETs | ΔTm screening, off-target binding (BD2 of BRDT and non-BET bromodomains) [2]: strong off‐target binding |
| O=S(=O)(Nc1ccccn1)c1ccc2nc(-c3ccc(O)c(O)c3)[nH]c2c1 [9 o, 2‐(3,4‐dihydroxyphenyl)‐N‐(pyridin‐2‐yl)‐1H‐benzo[d]imidazole‐6‐sulfonamide] | not tolerated |  |
| Cc1cc(-c2nc3ccc(S(=O)(=O)Nc4ccccn4)cc3[nH]2)ccc1O [9 j, 2‐(4‐hydroxy‐3‐methylphenyl)‐N‐(pyridin‐2‐yl)‐1H‐benzo[d]imidazole‐6‐sulfonamide] | marked loss of activity |  |
| O=S(=O)(Nc1ccccn1)c1ccc2nc(-c3ccc(O)cc3O)[nH]c2c1 [9 p, 2‐(2,4‐dihydroxyphenyl)‐N‐(pyridin‐2‐yl)‐1H‐benzo[d]imidazole‐6‐sulfonamide] | active but non‐selective |  |
| COCC(COC)n1c(-c2cc(C)c(=O)n(C)c2)nc2cc(N3CCOCC3)ccc21 [Compound 8, I‐BET469] |  | Selectivity for BD1 over BD2 of BRD2, BRD3 and BRD4 [3]: 20 fold; pIC50 on BD1 of BRD4 [3]: 7.9 |
| Cc1cc(/N=N/c2ccc(S(=O)(=O)Nc3ccccn3)cc2)c(N)cc1O [7 a, MS436, reference compound] |  | CYPs and UGTs “dual‐activity” microsomal stability (percentage of the parent compound turnover) [4]: 7.8±0.5%; Solubility at 100 μM ([5]; 100 μM, aqueous solution with 1 % DMSO): still soluble; solubility [5]: 100 µM (≈ 38.3 µg/mL); Papp at 24 h, 0.2 mM [6]: 0.0103 ×10⁻⁶ cm/s |
| O=S(=O)(Nc1ccccn1)c1ccc2nc(-c3ccc(Cl)cc3)[nH]c2c1 [9 n, 2‐(4‐chlorophenyl)‐N‐(pyridin‐2‐yl)‐1H‐benzo[d]imidazole‐6‐sulfonamide] | almost completely inactive |  |
| Cc1cc(-c2nc3ccc(S(=O)(=O)Nc4ccc(C#N)cc4)cc3[nH]2)cc(C)c1O [9 b, N ‐(4‐cyanophenyl)‐2‐(4‐hydroxy‐3,5‐dimethylphenyl)‐1H‐benzo[d]imidazole‐6‐sulfonamide] | increase in the melting temperature of all BET proteins | CYPs and UGTs “dual‐activity” microsomal stability (percentage of the parent compound turnover) [4]: 16.3±0.5%; solubility [5]: 50 µM (≈ 20.9 µg/mL); Papp at 24 h, 0.2 mM [6]: 0.0909 ×10⁻⁶ cm/s |
| CNS(=O)(=O)c1ccc2nc(-c3cc(C)c(O)c(C)c3)[nH]c2c1 [9 d, 2‐(4‐hydroxy‐3,5‐dimethylphenyl)‐N‐methyl‐1H‐benzo[d]imidazole‐6‐sulfonamide] | definitely lower affinity than 9 a and 9 b |  |
| Cc1cc(-c2nc3ccc(S(=O)(=O)NC4CCCCC4)cc3[nH]2)cc(C)c1O [9 i, N ‐cyclohexyl‐2‐(4‐hydroxy‐3,5‐dimethylphenyl)‐1H‐benzo[d]imidazole‐6‐sulfonamide] | affinity toward BETs similar to 9 a and 9 b | ΔTm screening, off-target binding (BD2 of BRDT and non-BET bromodomains) [2]: strong binding to BD2 of BRDT and other non‐BET bromodomain‐containing proteins |
| O=S(=O)(Nc1ccccn1)c1ccc2nc(-c3cccc(O)c3)[nH]c2c1 [9 m, 2‐(3‐hydroxyphenyl)‐N‐(pyridin‐2‐yl)‐1H‐benzo[d]imidazole‐6‐sulfonamide] | almost completely inactive |  |
| Cc1cc(-c2nc3ccc(S(N)(=O)=O)cc3[nH]2)cc(C)c1O [9 c, 2‐(4‐hydroxy‐3,5‐dimethylphenyl)‐1H‐benzo[d]imidazole‐6‐sulfonamide] | definitely lower affinity than 9 a and 9 b |  |
| Cc1cc(O)cc(C)c1-c1nc2ccc(S(=O)(=O)Nc3ccccn3)cc2[nH]1 [9 k, 2‐(4‐hydroxy‐2,6‐dimethylphenyl)‐N‐(pyridin‐2‐yl)‐1H‐benzo[d]imidazole‐6‐sulfonamide] | marked loss of activity |  |
| O=S(=O)(Nc1ccccn1)c1ccc2nc(-c3ccc(O)cc3)[nH]c2c1 [9 l, 2‐(4‐hydroxyphenyl)‐N‐(pyridin‐2‐yl)‐1H‐benzo[d]imidazole‐6‐sulfonamide] | still active but significantly less selective |  |
| Cc1cc(-c2nc3ccc(S(=O)(=O)NCc4cccnc4)cc3[nH]2)cc(C)c1O [9 f, 2‐(4‐hydroxy‐3,5‐dimethylphenyl)‐N‐(pyridin‐3‐ylmethyl)‐1H‐benzo[d]imidazole‐6‐sulfonamide] | complete loss of activity |  |
| CC(C)NCC(O)COc1cccc2ccccc12 (stereo not drawn) [propranolol] |  | Papp at 24 h, 0.2 mM [6]: 1.91 ×10⁻⁶ cm/s |
| COc1ccccc1S(=O)(=O)Nc1ccc2c3c(cc(-n4cnc(C)c4)nc13)C(=O)N2C [LT052] |  | IC50 ([7]; read-out: IC50 towards BD1): 87.7 nM; Selectivity for BD1 over BD2 ([7]; tested against BRD3 and BRD4): over 100 fold |

From paper PMC9826262, “Discovery of Benzo[d]imidazole‐6‐sulfonamides as Bromodomain and Extra‐Terminal Domain (BET) Inhibitors with Selectivity for the First Bromodomain” (Chemmedchem, 2022)
